7 compounds from PubChem BioAssay (NCI) can be followed below.

Structures are written as SMILES.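 How tested: cells in 96-well plates exposed to compound for 48 hours at five concentrations. TGI: total growth inhibition.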

Test systems include MCF7 breast; NCI-H522 lung; OVCAR-4 ovarian; SK-MEL-2 melanoma; RPMI-8226 leukemia; HT29 colon; A498 renal; SN12C renal; ACHN renal; MDA-MB-231 breast; HL-60(TB) leukemia; DU-145 prostate; M14 melanoma; EKVX NSCLC; COLO 205 colon; UACC-257 melanoma; CCRF-CEM leukemia; LOX IMVI melanoma; SNB-75 CNS; SK-MEL-5 melanoma.
Common to all, as to assay: NCI-60 cell line screen, 48 h

In the case of `O=CC(O)C(O)C1OC(=O)c2cc(O)c(O)c(O)c2C2=C(O)C(O)=C3OC(=O)c4c(c(O)c(O)c5c4C3C2C(=O)O5)-c2c(cc(O)c(O)c2O)C(=O)OCC1O` (stereo not given), the TGI in the test on MCF7 breast was 39.7 µM; with NCI-H522 lung it was 86.4 µM; with OVCAR-4 ovarian it was 51.5 µM; in the test with SK-MEL-2 melanoma, more than 100 µM; in the test with RPMI-8226 leukemia, more than 100 µM; in the test with HT29 colon, 42.9 µM. In addition, the TGI was more than 100 µM in the test on A498 renal; 30.4 µM in the test with SN12C renal; more than 100 µM in the test with ACHN renal; 58.1 µM in the test on MDA-MB-231 breast; 67.7 µM with HL-60(TB) leukemia; more than 100 µM in the test with DU-145 prostate. Also, the TGI with M14 melanoma was more than 100 µM; in the test on EKVX NSCLC, more than 100 µM; in the test with COLO 205 colon, more than 100 µM; in the test on UACC-257 melanoma, more than 100 µM; with CCRF-CEM leukemia it was more than 100 µM; with LOX IMVI melanoma, 31.9 µM. The TGI with SNB-75 CNS and in the test with SK-MEL-5 melanoma was more than 100 µM throughout.

As for `O=C(OCc1ccccc1)c1ccc(NCc2cc(O)ccc2O)cc1`, the TGI is 7.81 µM in the test on MCF7 breast; 0.883 µM in the test on NCI-H522 lung; 2.99 µM in the test on OVCAR-4 ovarian; 5.23 µM in the test on SK-MEL-2 melanoma; more than 100 µM in the test with RPMI-8226 leukemia; 20.3 µM with HT29 colon. In addition, the TGI in the test on A498 renal came out at 3.21 µM; in the test on SN12C renal, 2.78 µM; in the test with ACHN renal, 2.77 µM; with MDA-MB-231 breast, 6.08 µM; in the test with HL-60(TB) leukemia it was 2.56 µM; in the test on DU-145 prostate, 13.5 µM. Further, the TGI in the test on M14 melanoma stood at 4.02 µM; in the test with EKVX NSCLC, 3.48 µM; in the test with COLO 205 colon it was 2.88 µM; with UACC-257 melanoma, 3.4 µM; in the test on CCRF-CEM leukemia, 2.8 µM; with LOX IMVI melanoma it was 3.14 µM. Besides, the TGI in the test with SNB-75 CNS is 3.39 µM; with SK-MEL-5 melanoma it was 2.87 µM.

On to `CCN(CC)/[N+]([O-])=N/OCOC`, for which the TGI with MCF7 breast, with NCI-H522 lung, in the test with OVCAR-4 ovarian, in the test with SK-MEL-2 melanoma, in the test with RPMI-8226 leukemia and in the test with HT29 colon was more than 100 µM in each case. In addition, the TGI in the test on A498 renal, in the test on SN12C renal, in the test on ACHN renal, in the test with MDA-MB-231 breast, in the test on HL-60(TB) leukemia and with DU-145 prostate was more than 100 µM in each case. Also, the TGI in the test on M14 melanoma, in the test with EKVX NSCLC, in the test on COLO 205 colon, in the test with UACC-257 melanoma, in the test on CCRF-CEM leukemia and in the test with LOX IMVI melanoma was more than 100 µM throughout. Further, the TGI with SNB-75 CNS and in the test with SK-MEL-5 melanoma was more than 100 µM each time.

Take `CSC1(C(=O)O)C2CCC3C2CCC31` (stereo not given): the TGI with MCF7 breast, in the test with NCI-H522 lung, in the test with OVCAR-4 ovarian, with SK-MEL-2 melanoma, in the test with RPMI-8226 leukemia and in the test with HT29 colon was more than 100 µM each time. Moreover, the TGI in the test on A498 renal, in the test on SN12C renal, in the test on ACHN renal, in the test on MDA-MB-231 breast, with HL-60(TB) leukemia and in the test on DU-145 prostate was more than 100 µM in each case. For the same compound, the TGI in the test with M14 melanoma, in the test with EKVX NSCLC, in the test with COLO 205 colon, in the test on UACC-257 melanoma, in the test with CCRF-CEM leukemia and with LOX IMVI melanoma was more than 100 µM in each case. Moreover, the TGI in the test on SNB-75 CNS and in the test with SK-MEL-5 melanoma was more than 100 µM each time.

For the compound `Nc1nc(Cl)c(N)c(NCC2(CO)CCC(CCc3ccccc3)C2)n1` (stereo not given), the TGI with MCF7 breast worked out at 34.9 µM; in the test with NCI-H522 lung, 26.3 µM; with OVCAR-4 ovarian, 77.5 µM; with SK-MEL-2 melanoma it was 31.7 µM; in the test on RPMI-8226 leukemia, 47.7 µM; with HT29 colon, 29.2 µM. The TGI with A498 renal is 49.5 µM; with SN12C renal, 63.2 µM; in the test with ACHN renal it was more than 68.9 µM; in the test with MDA-MB-231 breast, 34.4 µM; in the test on HL-60(TB) leukemia it was 31.3 µM; with DU-145 prostate it was 55.1 µM. Moreover, the TGI in the test on M14 melanoma is 27.4 µM; with EKVX NSCLC, more than 69.9 µM; in the test with COLO 205 colon, 25.1 µM; in the test on UACC-257 melanoma, 18.8 µM; with CCRF-CEM leukemia, 48.8 µM; with LOX IMVI melanoma, 25.9 µM. The results for the TGI in the test on SNB-75 CNS and in the test on SK-MEL-5 melanoma were 63.9 µM and 15.1 µM, respectively.

As for `CC[C@@H]([C@H](O)c1ccccc1Cl)[N+](=O)[O-]`, the TGI with MCF7 breast, with NCI-H522 lung, in the test with OVCAR-4 ovarian, with SK-MEL-2 melanoma, in the test on RPMI-8226 leukemia and with HT29 colon was more than 100 µM throughout. Besides, the TGI in the test with A498 renal, with SN12C renal, with ACHN renal, with MDA-MB-231 breast, in the test with HL-60(TB) leukemia and with DU-145 prostate was more than 100 µM in each case. The TGI in the test with M14 melanoma, in the test on EKVX NSCLC, in the test on COLO 205 colon, in the test with UACC-257 melanoma, in the test on CCRF-CEM leukemia and in the test on LOX IMVI melanoma was more than 100 µM each time. Further, the TGI in the test with SNB-75 CNS and in the test on SK-MEL-5 melanoma was more than 100 µM throughout.

Regarding `COC(=O)[C@@H](NC(=O)[C@H](N)Cc1ccc(N(CCCl)CCCl)cc1)C(C)C`, the TGI in the test with MCF7 breast is more than 100 µM; with NCI-H522 lung it was 33.1 µM; with OVCAR-4 ovarian, 36.7 µM; in the test on SK-MEL-2 melanoma it was more than 100 µM; with RPMI-8226 leukemia it was 34 µM; in the test on HT29 colon, more than 100 µM. The TGI was 48.5 µM in the test with A498 renal; more than 79.7 µM in the test on SN12C renal; 51.8 µM in the test with ACHN renal; 57.7 µM in the test with MDA-MB-231 breast; more than 51.8 µM in the test on HL-60(TB) leukemia; 59.1 µM with DU-145 prostate. Besides, the TGI in the test on M14 melanoma is 49.5 µM; with EKVX NSCLC, more than 90.8 µM; in the test on COLO 205 colon it was more than 64.4 µM; in the test with UACC-257 melanoma, 25 µM; in the test on CCRF-CEM leukemia, more than 29.6 µM; with LOX IMVI melanoma, 37.9 µM. For the same compound, the TGI in the test with SNB-75 CNS came to 66.6 µM; with SK-MEL-5 melanoma, 10.8 µM.
